Converted amounts (≈) assume the structure as drawn.
Key:
[1] = test system: human cervical cancer cells HeLa; test: SRB cytotoxicity assay, HeLa; type: cell-based; details: 48 h
Description: (§1) Human lung cancer cell line NCI-H460 (HTB-177), human breast cancer cell line MCF-7 (HTB-2), human cervical cancer cells HeLa (CCL-2), human liver cancer cell line HepG2 (HB-8065) and normal kidney epithelial cell line (LLCPK1) were purchased from the American Type Culture Collection (Manassas, Rockville). Cells were cultured at 37°C and 5% CO2 in Eagle’s minimal essential medium supplemented with 10% (v/v) FBS (Sigma), 2 mM L-glutamine (Sigma), 20 mM HEPES (Sigma), 0.025 μg ml^−1 amphotericin B (Sigma), 100 IU ml^−1 penicillin G (Sigma) and 100 μg ml^−1 streptomycin (Sigma). Cells used in this study were between passages 4 and 20.
(§2) The experiment was conducted as previously outlined, with certain variations. Cells were seeded at a density of 10 000 cells per well (MCF-7, Hep G2, HeLa) or 7500 cells per well (NCI-H460) in 96-well plates, grown for 24 h, and subsequently treated with compounds at varying doses for 48 h. Treated cells were fixed with cold 50% (w/v) trichloroacetic acid (Merck) solution for 1−3 h, subsequently washed and stained with 0.2% (w/v) SRB (Sigma) for 20 min. Following five washes with 1% acetic acid (Merck), the protein-bound dye was solubilized in a 10 mM Tris base solution (Promega). Optical density values were measured using a 96-well microtiter plate reader (Synergy HT, Biotek Instruments) at wavelengths of 492 and 620 nm. The growth inhibition percentage (Inh %) was determined using the formula: Inh % = (1 − [ODt/ODc]) × 100, where ODt and ODc represent the optical density values of the test and control samples, respectively. Camptothecin served as the positive control.

[2] = DPPH radical scavenging assay; type: biochemical; details: read-out: SC50 (the source's name)
Description: The 1,1-diphenyl−2-picrylhydrazyl (DPPH) assay is a technique employed to assess the antioxidant potential of a chemical by measuring its efficacy in scavenging free radicals. DPPH produces stable free radicals in methanol. Upon exposure to an antioxidant, DPPH experiences a colour transformation from purple to yellow, which is quantified using an ELISA reader at a wavelength of 517 nm. The experiment is performed in a 96-well plate, where a 150 µM DPPH solution in 80% methanol is combined with test samples at different concentrations. The DPPH radical scavenging activity percentage is computed using the formula SC% = 1 − [ODt/ODc] × 100 (%), where SC50 (radical scavenging concentration of 50%) is the sample concentration necessary to eliminate 50% of DPPH radicals, as ascertained from the standard calibration curve. Trolox serves as a positive control in the experiment.

[3] = test system: human liver cancer cell line HepG2; test: SRB cytotoxicity assay, HepG2; type: cell-based; details: 48 h
Description: as §1, §2

[4] = test system: human breast cancer cell line MCF-7; test: SRB cytotoxicity assay, MCF-7; type: cell-based; details: MCF7, MCF-7, SRB assay, 48 h
Description: as §1, §2

[5] = test system: normal kidney epithelial cell line (LLCPK1); test: SRB cytotoxicity assay, normal cells LLCPK1; type: cell-based; details: Sus scrofa, LLC-PK1
Description: as §1, §2

[6] = test system: Bacillus subtilis; test: Broth microdilution MIC, B. subtilis; type: cell-based
Description: The three bacteria—Escherichia coli (E. coli), methicillin-resistant Staphylococcus aureus (MRSA) and Bacillus subtilis (B. subtilis), and two fungi: Candida albicans (C. albicans) and Trichophyton mentagrophytes (T. mentagrophytes) were used in this study. The clinical isolates were obtained in 2019 from the Faculty of Biology and Biotechnology, University of Science, Vietnam National University.
All coumarin derivatives were evaluated for in vitro antibacterial and antifungal activities, and the minimum inhibitory concentration (MIC) was ascertained in µM using the broth microdilution method. The test organisms were cultivated and cultured for 48 h at 37°C. The 2-day-old bacterial cultures were emulsified in a small volume of Muller Hinton broth (MHB) and cultured at 37°C overnight to reach the logarithmic growth phase. The turbidity of each inoculum was subsequently corrected to McFarland standard no. 0.5 by the additional incorporation of MHB, resulting in an inoculum concentration of 1.5 × 10^8 CFU ml^−1. One hundred microlitres of MHB were dispensed into all wells of the 96-well microtiter plates, excluding the first column A. Subsequently, 200 µl of the working solution for each examined chemical was allocated to column A of each plate. […] The MIC was determined as the minimal concentration of substances that inhibited the colour change.

SMILES | IC50 [1] | EC50 [2] | IC50 [3] | IC50 [4] | IC50 [5] | MIC [6]
O=C(O)c1ccc(NCc2c(O)c3ccccc3oc2=O)cc1 [2c, 4-{[(4-hydroxy-2-oxo-2H-chromen-3-yl)methyl]amino}benzoic acid] | 54.9 µM | 59.7 µM | 56.5 µM | 61.4 µM | – | –
Cc1c(C)c2c(c(C)c1O)CCC(C)(C(=O)O)O2 (stereo not shown) [Trolox, reference compound] | – | 6.12 ± 0.15 µM | – | – | – | –
O=c1oc2ccccc2c(O)c1CNc1ccc(S(=O)(=O)O)cc1 [compound 2i, 4-{[(4-Hydroxy-2-oxo−2H-chromen-3-yl)methyl]amino}benzenesulfonic acid] | 80.2 µM | 7.36 ± 0.18 µM | 75.2 µM | 85.2 µM | – | –
CNCc1c(O)c2ccccc2oc1=O [compound 2a, 4-Hydroxy-3-[(methylamino)methyl]-2H-chromen-2-one] | 39.3 µM | 62.5 µM | 8.57 ± 0.42 µM | 52 µM | 94.6 µM | 25 µM (≈ 5.13 µg/mL)
CC(C)NCc1c(O)c2ccccc2oc1=O [compound 2b, 4-Hydroxy-3-[(isopropylamino)methyl]-2H-chromen-2-one] | 5.23 ± 0.12 µM | 31.3 µM | 73.2 µM | 35.4 µM | 97.3 µM | –
O=c1oc2ccccc2c(O)c1CN1CCOCC1 [2g, 4-Hydroxy-3-(morpholinomethyl)-2H-chromen-2-one] | 31.5 µM | 72.2 µM | 50.2 µM | 42.7 µM | – | –
N#Cc1ccc(NCc2c(O)c3ccccc3oc2=O)cc1 [compound 2d, 4-{[(4-Hydroxy-2-oxo-2H−chromen-3-yl)methyl]amino}benzonitrile] | 34.1 µM | 35.8 µM | 70.2 µM | 2.54 ± 0.12 µM | 94.8 µM | –
O=c1oc2ccccc2c(O)c1Cn1ccnc1 [2e, 3-[(1H-imidazol-1-yl)methyl]-4-hydroxy-2H-chromen-2-one] | 34.2 µM | 80.9 µM | 34.2 µM | 30.4 µM | – | –
CC[C@@]1(O)C(=O)OCc2c1cc1n(c2=O)Cc2cc3ccccc3nc2-1 [camptothecin, reference compound] | 2.38 ± 0.102 µM | – | 4.28 ± 0.201 µM | 3.76 ± 0.15 µM | – | –
O=c1oc2ccccc2c(O)c1CNC1CCCC1 [compound 2f, 3-[(Cyclopentylamino)methyl]-4-hydroxy-2H-chromen-2-one] | 57.3 µM | 45.9 µM | 49.7 µM | 54.2 µM | – | 75 µM (≈ 19.4 µg/mL)
O=c1oc2ccccc2c(O)c1CNc1ccccc1 [compound 2j, 4-Hydroxy-3-[(phenylamino)methyl]-2H-chromen-2-one] | 84.7 µM | 53.3 µM | 68.1 µM | 95.5 µM | – | –
CCCNCc1c(O)c2ccccc2oc1=O [2h, 4-Hydroxy-3-[(propylamino)methyl]-2H-chromen-2-one] | 73.2 µM | 65.3 µM | 62.5 µM | 40.1 µM | – | –
